Assay results published in US20140081012A1, “NANOPARTICLE, LIPOSOMES, POLYMERS, AGENTS AND PROTEINS MODIFIED WITH REVERSIBLE LINKERS” (THE UNIVERSITY OF NORTH CAROLINA AT CHAPEL HILL, priority 2011, published 2014).

Legend:
[1] = system: anti-BSA antibody (sandwich ELISA); assay: BSA ELISA characterization; format: binding; details: several concentrations over the sampling range
Description: Several concentrations were compared over the sampling range of the assays (FIG. 30). […] ELISA relies upon protein-protein interactions, thus providing insight into the preservation of the protein's binding motifs.
The solution was then dialyzed against water for 2 h to remove GSH. […] Absorbance was measured with a SpectraMax M5 plate reader (Molecular Devices) at 450 nm.

[2] = Regeneration of tyramine after disulfide cleavage with DTT (GC-MS); format: physicochemical; details: 50 mM DTT in PBS
Description: Two tyramine molecules were reacted with DIC in isopropanol, which completely simulates the cross-linking conditions for protein-based particles (FIG. 26). The commercially available disulfide crosslinker DSP was used as a control in this study. The dimer products were denoted as tyramine-DIC and tyramine-DSP, respectively. Both compounds were treated with 50 mM of dithiothreitol (DTT) in phosphate buffer saline (PBS) to cleave the disulfide bond. […] In addition, ^1H-NMR and high-resolution mass spectrometry confirmed the structure of tyramine recovered after DTT treatment of tyram tyramine-DIC. (SI) Therefore, all the aforementioned results support the successful design of the novel DIC crosslinker.
Tyramine (0.24 g, 1.75 mmol) was added to a solution of DIC (0.12 g, 0.35 mmol) in isopropanol (15 mL). The reaction mixture was stirred for 24 h at 40° C. The mixture was concentrated and purified by column chromatography (EtOAc) to give tyramine-DIC ([…]) as light yellow solid. Tyramine (0.24 g, 1.75 mmol) was added to a solution of DSP (0.14 g, 0.35 mmol) in DMF (4 mL). The reaction mixture was stirred for 24 h at 40° C. […] The supernatants from the solutions were collected and analyzed by gas chromatography-mass spectrometry (Alilent Technologies 5975 series MSD, 7820A GC system) and untreated tyramine was used as standard.

Molecule	absorbance in BSA ELISA compared with native albumin [1]	regeneration of tyramine after cleavage of the disulfide bond [2]
albumin dissolved from the cross-linked particles: BSA released from DIC-cross-linked PRINT BSA particles in PBS with 5 mM glutathione	very similar absorbance	–
denatured free protein: heat denatured BSA	significantly less total absorbance	–
O=C(CCSSCCC(=O)NCCc1ccc(O)cc1)NCCc1ccc(O)cc1 [tyramine-DSP]	–	No peak of tyramine was observed
